# Source: PMC8234803, “In Vitro Metabolism of Six C-Glycosidic Flavonoids from Passiflora incarnata L” (International Journal of Molecular Sciences, 2021)
# Entries after “also recorded” stand apart in the source; their conditions may differ.
# Experiments:
# [1] = Stability testing in test buffer (HBSS pH 6.0) under assay conditions, HPLC-DAD; assay type: physicochemical; details: 10 µM in HBSS pH 6.0, 37 °C, 5% CO2
# Experimental: To guarantee the stability of all test substances during the metabolism assay on Caco-2 cells, they were incubated in the test buffer under assay conditions. Test samples were collected each hour for 5 h and were measured via HPLC-DAD.
# To ensure stability during the Caco-2 metabolism experiments, all test substances were dissolved in DMSO to a concentration of 20 mM and diluted to 10 µM in an appropriate volume of HBSS (pH 6.0), resulting in a DMSO concentration of less than 1%. The test solution (1 mL) was aliquoted into a 12-well Transwell® plate and incubated for 5 h in an atmosphere of 5% CO2 and 90% relative humidity at 37 °C. Test samples (100 µL) were collected after t = 0, 1, 2, 3, 4, and 5 h and measured via HPLC-DAD. The peak area of the test substance at time t = 0 h was defined as 100%, and all other peak areas were related to calculate the proportional stability. The stability was calculated as % = area/area0 × 100. Stability testing was performed on three independent days with freshly prepared solutions (n = 3).
# The system consisted of the following: Elite LaChrom with an L2200 autosampler, L2130 pump, L2350 column oven, L2444 DAD, and EZChrom Elite 3.1.7 software (Hitachi, Tokyo, Japan); column: Kinetex® Biphenyl, 100 Å, 250-4.6 mm (5 µm, same material precolumn; Phenomenex, Torrance, CA, USA); injection volume 30 µL; oven temp.: 25 °C; autosampler temp.: 10 °C; detection wavelength: 340 nm; flow: 1.2 mL/min; A = H2O + 0.1% TFA, B = acetonitrile + 0.1% TFA; gradient: 0–2 min 10% B, 2–10 min 10% B → 100% B, 10–11 min 100% B → 10% B, 11–15 min 10% B.
# Caco-2 cell monolayer = assay: Caco-2 monolayer metabolism experiment, metabolites identified via UHPLC-DAD-MS(/MS); assay type: in vitro ADME, human; details: for Extent of metabolism (in words) / Phase II conjugates containing glucuronic acid or sulfates / Phase II metabolites with glucuronic acid or sulfates: 3 and 5 h; for Extent of phase I and II metabolism (in words): independent of incubation time and concentration
# Experimental: To obtain information on the in vitro metabolism of the six tested C-glycosidic flavonoids in the intestine, experiments were carried out using the Caco-2 monolayer model (Figure 2). Metabolite profiles were characterized at two different concentrations (10 and 100 µM; n = 3) and after two different incubation times (3 or 5 h; n = 3) in order to determine the influence of concentration and time on the metabolism reactions that occurred. Furthermore, to analyze the distribution of the observed metabolites, samples were collected from the cell lysate and the apical and basolateral compartments. All samples of the metabolism experiments using the Caco-2 cell monolayer were analyzed using UHPLC-DAD-MS and UHPLC-DAD-MS/MS. Metabolites were identified by libraries that were prepared for each compound (Tables S1–S6). The O and IO libraries contained 67 metabolites (Tables S1 and S2), the S and IS libraries contained 106 metabolites (Tables S3 and S4), and the V and IV libraries contained 71 possible metabolites (Tables S5 and S6).
# To form a confluent and differentiated monolayer, cells at passages 16–45 were seeded into the inserts of 12-well Transwell® plates at a density of 3.0 × 10^5 cells/cm^2. Afterwards, the culture medium was replaced every day, and the metabolism experiment was performed 21 days after seeding. The apical and basolateral compartments contained 0.5 and 1.5 mL of cell culture medium, respectively.
# On day 21, the cell culture medium was removed from the apical and basolateral compartments, and the Caco-2 cell monolayer was washed two times with prewarmed HBSS. The Transwell® plates containing HBSS were incubated at 37 °C for 15 min to measure the transepithelial electrical resistance (TEER) value. The integrity of the cell monolayers was evaluated by TEER values between the apical and basolateral sides with the Evohm2 system (World Precision Instruments, Sarasota, FL, USA). The cell inserts were only used for the metabolism experiments if the resistance exceeded 350 Ω/cm^2. The six test substances were dissolved in DMSO to a stock solution of 20 mM. The HBSS was adjusted to pH 6.0 and 7.4 with 1 M HCl. Afterwards, the stock solutions were diluted to 10 or 100 µM in an appropriate volume of HBSS (pH 6.0) to obtain a DMSO concentration of <1%. The test solutions were added to the apical side (0.5 mL), while the basolateral side was filled with 1.5 mL of HBSS (pH 7.4). The Transwell® plates were incubated at 37 °C for 3 or 5 h, respectively. After this period, solutions from the apical and basolateral compartments were collected in separate tubes, washed twice with 500 µL of HBSS, and then collected again. The samples were lyophilized and stored at −20 °C until they were measured using UHPLC-DAD-MS. After the experiment, Transwell® inserts were apically (0.5 mL) and basolaterally (1.5 mL) filled with HBSS and warmed to 37 °C for 20 min. Then, the TEER values were measured to guarantee the integrity of the monolayer during the experiment. The experiment was performed in triplicate for each substance, concentration, and incubation time.
# After the metabolism experiment, cell monolayers were washed twice with PBS and incubated with 200 µL of trypsin-EDTA for 10 min at 37 °C in an atmosphere of 5% CO2 and constant humidity in the incubator. The cells were removed from the well by pipetting up and down, and were collected in a tube. The well was washed twice with PBS (1 mL), and the wash solution was also collected in the corresponding tube. The mixture was centrifuged (1000× g rpm, 5 min), and the supernatant was discarded.
# Caco-2 cells = assay: MTT assay under metabolic conditions (cell viability); assay type: cell-based, human; details: 10, 25, 50, 75, 100 µM in HBSS (pH 6.0), 5 h incubation
# Experimental: (§1) All six substances were tested in five different dilutions in HBSS (pH 6.0). The determined viability values of O, IO, S, IS, V, and IV are listed in the Supplementary Materials (Figure S2).
# (§2) Caco-2 cells in the logarithmic growth phase were seeded in 96-well plates at a density of 3 × 10^4 cells/well and incubated at 37 °C in an atmosphere of 5% CO2 and constant moisture in an incubator. After 24 h, the cell culture medium was removed, and 100 µL of HBSS solution (negative control), 0.5% DMSO in HBSS solution (solvent control), or flavonoid samples in HBSS solution (6 flavonoids at concentrations of 10, 25, 50, 75, and 100 µM) was applied in quintuplicate and incubated for 5 h. Afterwards, the HBSS solutions were removed and replaced with an MTT solution in DMEM (0.4 mg/mL) and incubated for another 3 h at 37 °C. Then, the MTT solution was discarded, and the cells were fixed with a 10% SDS solution in PBS and stored at room temperature in the dark. After 24 h, the absorbance was measured on a Tecan microplate reader (Tecan Trading AG, Switzerland) at 560 nm. The viability rate was calculated as % = A/A0 × 100, with A as the average absorbance value of the treatment and solvent control groups and A0 as the average absorbance value of the negative control group. The assay was performed three times in pentaplicate.
# (§3) The human colon adenocarcinoma cell line Caco-2 was obtained from the ATCC (American Type Culture Collection, Manassas, VA, USA). The cell line was determined to be free of mycoplasma contamination by PCR and culture from GATC Biotech AG (Konstanz, Germany). The cells were cultured in DMEM supplemented with 10% (v/v) FBS, 1% (v/v) NEAA, and 1% (v/v) antibiotics (penicillin/streptomycin) in an atmosphere of 5% CO2 and 90% relative humidity at 37 °C. The culture medium was replaced every 3 days, and the cells were split 1:5 using trypsin-EDTA once 90% confluence was obtained.
# [2] = as above; assay type: cell-based, human; details: human, 5 h incubation, read-out: Viability of Caco-2 cells; for viability at 5 h, 10 µM: Caco-2, 10 µM in HBSS (pH 6.0); for viability at 5 h, 100 µM: Caco-2, 100 µM in HBSS (pH 6.0)
# Experimental: as §1, §2, §3
# [3] = initial concentration 10 µM, 3 h, apical compartment
# [4] = initial concentration 10 µM, 5 h, apical compartment
# [5] = initial concentration 100 µM, 3 h, apical compartment
# [6] = initial concentration 100 µM, 3 h, basolateral compartment
# [7] = initial concentration 100 µM, 5 h, apical compartment
Molecule,Stability (content relative to t = 0 h) ([1]; after 3 h of incubation),Stability (content relative to t = 0 h) ([1]; after 5 h incubation),Extent of metabolism (in words) (Caco-2 cell monolayer; 10 µM),Metabolites of the aglycones (cleavage of the C–C glycosidic bond) (Caco-2 cell monolayer; 100 µM approach),Extent of metabolism (in words) (Caco-2 cell monolayer; 100 µM),"Possible metabolite (phase II metabolite identified by MS/MS fragmentation and comparison with reference compound after enzymatic hydrolysis) (Caco-2 cell monolayer; glucuronidase/sulfatase cleavage, UHPLC-DAD-MS/MS)",Extent of phase I and II metabolism (in words) (Caco-2 cell monolayer),Possible metabolite detected (Caco-2 cell monolayer; [3]),Possible metabolite detected (Caco-2 cell monolayer; [4]),Possible metabolite detected (Caco-2 cell monolayer; [5]),Possible metabolite detected (Caco-2 cell monolayer; [6]),Possible metabolite detected (Caco-2 cell monolayer; [7]),Effect on the viability of Caco-2 cells (in words) (Caco-2 cells),"viability at 5 h, 10 µM [2]","viability at 5 h, 100 µM [2]",Phase II conjugates containing glucuronic acid or sulfates (Caco-2 cell monolayer; 10 µM),Phase II metabolites with glucuronic acid or sulfates (Caco-2 cell monolayer; 100 µM)
"O=c1cc(-c2ccc(O)cc2)oc2cc(O)c([C@@H]3O[C@H](CO)[C@@H](O)[C@H](O)[C@H]3O)c(O)c12 [IV, isovitexin]",96%,95%,broader ranges of phase I and II metabolites,metabolites of the corresponding aglycones apigenin and luteolin were also detected,extensive metabolism,Methoxy-luteolin-sulfate,highly metabolized in phase I and II reactions,Hydroxy-methoxy-isovitexin; also recorded: Hydroxy-apigenin-sulfate; also recorded: Hydroxy-methoxy-apigenin,Hydroxy-methoxy-isovitexin; also recorded: Hydroxy-dimethoxy-isovitexin; also recorded: Hydroxy-apigenin-sulfate,Hydroxy-apigenin-sulfate; also recorded: Hydroxy-dimethoxy-isovitexin; also recorded: Hydroxy-methoxy-apigenin; also recorded: Hydroxy-methoxy-isovitexin,Hydroxy-dimethoxy-isovitexin,Hydroxy-methoxy-isovitexin; also recorded: Hydroxy-apigenin-sulfate; also recorded: Hydroxy-dimethoxy-isovitexin; also recorded: Hydroxy-methoxy-apigenin,"slight, concentration-dependent reductions",92%,82%,,
"O=c1cc(-c2ccc(O)cc2)oc2c([C@@H]3O[C@H](CO)[C@@H](O)[C@H](O)[C@H]3O)c(O)cc(O)c12 [V, vitexin]",approximately 100%,,very limited metabolism,,a few hydroxylated and methoxylated derivatives,,poorly metabolized in phase I and II reactions,,,Hydroxy-methoxy-vitexin,Hydroxy-methoxy-vitexin,Hydroxy-vitexin,"slight, concentration-dependent reductions",92%,83%,No phase II conjugates containing glucuronic acid or sulfates were detectable,lacked the presence of phase II metabolites with glucuronic acid or sulfates
schaftoside,approximately 100%,,very limited metabolism,,a few hydroxylated and methoxylated derivatives,,poorly metabolized in phase I and II reactions,Hydroxy-methoxy-schaftoside,Hydroxy-methoxy-schaftoside,Hydroxy-methoxy-schaftoside,Hydroxy-methoxy-schaftoside,Hydroxy-methoxy-schaftoside,no significant effects at any concentration,,,No phase II conjugates containing glucuronic acid or sulfates were detectable,lacked the presence of phase II metabolites with glucuronic acid or sulfates
"O=c1cc(-c2ccc(O)cc2)oc2c([C@@H]3O[C@H](CO)[C@@H](O)[C@H](O)[C@H]3O)c(O)c([C@@H]3OC[C@H](O)[C@H](O)[C@H]3O)c(O)c12 [IS, isoschaftoside]",approximately 100%,,very limited metabolism,,a few hydroxylated and methoxylated derivatives,,poorly metabolized in phase I and II reactions,,,Methoxy-isoschaftoside,,,no significant effects at any concentration,,,No phase II conjugates containing glucuronic acid or sulfates were detectable,lacked the presence of phase II metabolites with glucuronic acid or sulfates
